Experiment [1] has as its system deoxyribonucleoside kinases from Aedes aegypti (PZG318). The experiment is described as follows: Nucleoside kinase activity (DE-81 filter paper assay, tritium labelled substrates) in extracts of KY895 cells transformed with PZG318. Format: biochemical. The settings on record: for Phosphorylation / activation by the mosquito deoxyribonucleoside kinase (in words): extract of KY895 transformed with PZG318; for Deoxyribonucleoside kinase specific activity in extract: substrate at fixed concentration of 100 μM. Here is the method:
(§1) This example describes how E. coli KY895 were transformed with the plasmid obtained according to Example 1, in order to express mosquito dNK.
(§2) KY895 cells were transformed by the expression plasmid of Example 1 using standard techniques, e.g. as described by e.g. Sambrook et al. [Sambrook et al.; Molecular Cloning: A Laboratory Manual, Cold Spring Harbor Lab., Cold Spring Harbor, N.Y. 1989].
(§3) Transformed cells were grown to an OD600 nm of 0.5-0.6 in LB/Ampicillin (100 μg/ml) medium at 37° C. and protein expression was induced by addition of 100 μM IPTG. The cells were further grown for 4 h at 25° C. and subsequently harvested by centrifugation. The cell pellet was subjected to sonification in the binding buffer A (20 mM NaPO4 pH 7,3; 150 mM NaCl; 10% Glycerol; and 0.1% Triton X-100) and subjected to centrifugation at 10,000×g for 30 minutes. Cell free extract was used for enzymatic activity assays.
Nucleoside kinase activities were determined by initial velocity measurments based on four time sample by the DE-81 filter paper assay using tritium labelled substrates. The assays were performed as described by Munch-Petersen et al. [Munch-Petersen B, Knecht W, Lenz C, Søndergaard L, Piskur J: Functional expression of a multisubstrate deoxyribonucleoside kinase from Drosophila melanogaster and its C-terminal deletion mutants; J. Biol. Chem. 2000 275 6673-6679].
The protein concentration was determined according to Bradford with BSA as standard protein [Bradford M M: A rapid and sensitive method for the quantitation of microgram quantities of protein utilizing the principle of protein-dye binding; Anal. Biochem. 1976 72 248-254]. SDS-PAGE was done according to the procedure of Laemmli[Laemmil U K: Cleavage of structural proteins during the assembly of the head of bacteriophage T4; Nature 1970 227 680-685], and proteins were visualized by Coomassie staining to verify recombinant protein expression.
The natural deoxyribonucleoside and deoxyribonucleoside analogs were tested at a fixed concentration of 100 μM. The specific activity in each extract is given in mU/ml.

A further experiment concerns Extracts of KY895 Cells. In words: Nucleoside kinase activity (DE-81 filter paper assay) in control extracts of KY895 cells (cells only, empty vector pGEX-2T). Format: biochemical, E. coli. To be noted: extract of KY895 transformed with pGEX-2T (empty vector); substrate 100 μM; n.d. = not detectable. As to the method:
as §1, §2, §3
Nucleoside kinase activities were determined by initial velocity measurments based on four time sample by the DE-81 filter paper assay using tritium labelled substrates. […]
The protein concentration was determined according to Bradford with BSA as standard protein [Bradford M M: A rapid and sensitive method for the quantitation of microgram quantities of protein utilizing the principle of protein-dye binding; Anal. Biochem. 1976 72 248-254]. […]

Experiment [2] deals with KY895 transformed with pGEX-2T-HSV1-TK. In words: Growth of transformed E. coli KY895 on nucleoside analog plates, transformed with pGEX-2T-HSV1-TK. Format: cell-based. The settings on record: 24 hours at 37° C. As to the method: (§4) Deoxyribonucleoside kinases are of interest as suicide-genes to be used in gene-mediated therapy of cancer or viral infections. In this example the potential of the mosquito kinase of the invention to convert different nucleoside analogs are compared to that of the human Herpes simplex virus 1 thymidine kinase (HSV1-TK) in a bacterial test system.
(§5) The experiment was carried out essentially as described by Knecht et al. [Knecht W. Munch-Petersen B and Piskur J: identification of residues involved in the specificity and regulation of the highly efficient multisubstrate deoxyribonucleoside kinase from Drosophila melanogaster; J. Mol. Biol. […] 301 827-837]. Briefly, overnight cultures of transformed KY895 were diluted 200-fold in 10% glyercol and 2 μl drops of the dilutions were spotted on M9 minimal medium plates [Ausubel F, Brent R, Kingston R E, Moore D D, Seldman J G, Smitf J A & Struhl K (Eds.): Short protocols in molecular biology; 3rd edition (1995) pp. 1-2, Wiley, USA] supplemented with 0.2% glucose, 0.1% casamino acids, 100 μg/ml ampicillin and with or without nucleoside analogs. Growth was inspected visually after 24 hours of incubation at 37° C.

For the next experiment, the system named is KY895. The experiment is described as follows: Growth of E. coli KY895 on nucleoside analog plates, controls (cells only, empty vector pGEX-2T). Format: cell-based. The settings on record: 24 hours at 37° C. As to the method:
as §4, §5
pGEX-2T is the empty vector and is available from Amersham-Pharmacia;

Experiment [3] has as its system KY895 transformed with PZG318. In words: Growth of transformed E. coli KY895 on nucleoside analog plates, transformed with PZG318 (mosquito dNK kinase). In kind it is cell-based. Here is the method:
as §4, §5

Regarding `Nc1nc2c(ncn2COCCO)c(=O)[nH]1` [ACV, acyclovir], in experiment [1], the “Phosphorylation / activation by the mosquito deoxyribonucleoside kinase (in words)” value (shortened to “Phosphorylation / activation”) is “also activated” and the “Deoxyribonucleoside kinase specific activity in extract” value is reported as 0.3 mU/ml.

Turning to `Nc1nc(O)c2ncn(COC(CO)CO)c2n1` [GCV, gancyclovir], in experiment [1], the “Phosphorylation / activation” value is on record as “also activated” and the “Deoxyribonucleoside kinase specific activity in extract” value amounted to 0.7 mU/ml.

For the molecule `Nc1ccn([C@H]2C[C@H](O)[C@@H](CO)O2)c(=O)n1` [dCyt, deoxycytidine], in experiment [1], the “Phosphorylation / activation” value is on record as “able to phosphorylate” and the “Deoxyribonucleoside kinase specific activity in extract” value came to 124.5 mU/ml. Besides, in the experiment with Extracts of KY895 Cells, the “Deoxyribonucleoside kinase specific activity in extract” value was found to be 0.1 mU/ml.

Consider `Nc1ccn([C@@H]2O[C@H](CO)[C@@H](O)C2(F)F)c(=O)n1` [dFdC, 2′,2′-difluorodeoxycytidine], for which the “dFdC LD100” value is recorded as over 100 nM in experiment [2]; over 100 nM with KY895 (KY895 cells only); over 100 nM in the experiment on KY895 (KY895 transformed with pGEX-2T (empty vector)); 3.16 nM in experiment [3] (KY895 transformed with PZG318, M9 plates, growth inspected after 24 hours at 37° C.). In experiment [1], the “Phosphorylation / activation” value is “much stronger than dCyt”. Besides, the “Deoxyribonucleoside kinase specific activity in extract” value in experiment [1] was determined as 228 mU/ml. In addition, in experiment [3] (KY895 on nucleoside analog plates, PZG318 versus HSV1-TK), the “LD100 with mosquito dNK kinase (PZG318) lower than that of HSV1-TK” value was “at least 30 fold”.

Turning to `Nc1nc2c(ncn2[C@H]2C[C@H](O)[C@@H](CO)O2)c(=O)[nH]1` [dGuo, deoxyguanosine], in experiment [1], the “Phosphorylation / activation” value is given as “able to phosphorylate” and the “Deoxyribonucleoside kinase specific activity in extract” value was found to be 214.7 mU/ml.

Take `Cc1cn([C@H]2C[C@H](O)[C@@H](CO)O2)c(=O)[nH]c1=O` [Thd, thymidine]: in experiment [1], the “Phosphorylation / activation” value is given as “able to phosphorylate” and the “Deoxyribonucleoside kinase specific activity in extract” value turned out to be 125 mU/ml.

For `Nc1ncnc2c1ncn2[C@H]1C[C@H](O)[C@@H](CO)O1` [dAdo, deoxyadenosine], in experiment [1], the “Phosphorylation / activation” value is “able to phosphorylate” and the “Deoxyribonucleoside kinase specific activity in extract” value is recorded as 364 mU/ml.

The values above are taken from patent US20070202120A1, “Yellow Fever Mosquito Deoxyribonucleoside Kinases And Its Use” (priority 2003, published 2007).
